From US20250312339A1, “METHODS AND COMPOSITIONS COMPRISING A SHP2 INHIBITOR AND A PD-LI BINDING ANTAGONIST” (Genentech, Inc., priority 2022, published 2025)
“Also recorded” adds a separate entry of the source. Values belong to the compound of their own block, whether it stands above or below them.

Legend:
Fc receptors = conditions: cited from earlier work
[1] = in vivo; cited from earlier work
EMT6 mammary tumors = assay: Tumor immuno-profiling by flow cytometry after 7 days of treatment; assay type: in vivo, mice
Experimental: Tumor Immuno-profiling. Anti-tumor immunity was evaluated in EMT6 mammary tumors by flow cytometric immuno-profiling of tumor cells and tumor-infiltrating immune cells the tumor after 7-days of treatment with either vehicle and isotype control antibodies, single agent Compound 1 (60 mg/kg, PO, QD), anti-PD-L1 antibodies (10 mg/kg, IV, first dose, then 5 mg/kg, IP, twice per week), or the combination with of Compound 1 and anti-PD-L1.
The activation status of the TILs was assessed by assessing the expression of cytokines and effector molecules, including interferon gamma (IFNg), tumor necrosis factor alpha (TNFa) and granzyme B (GZMB) from tumor-derived T cells under restimulation conditions using PMA/ionomycin (FIG. 6A). […] There was also an increase of the frequency of CD8+ T cells expressing GZMB in tumors from mice treated with Compound 1 and anti-PD-L1 relative to the vehicle group (p=0.0137). (FIG. 6A). The polyfunctionality of tumor-infiltrating CD8^+ T cells (expressing IFNg and TNFa) was increased when mice were treated with Compound 1 alone or in combination with anti-PD-L1 antibodies relative to the vehicle group (p=0.0008 and p=0.0011, respectively). Markers of T cell activation and exhaustion were also assessed to determine if SHP2 inhibition by Compound 1 alone or in combination with anti-PD-L1 antibodies altered the phenotype of CD8+ T cells in the tumor.

[2] = test system: panel of kinases, receptors, ion channels, and transporters; assay: Selectivity panel
Experimental: (§1) Compound 1 is a potent allosteric inhibitor of recombinant human SHP2, with inhibitory concentration of 50% (IC50) of 0.7 nM. It has been characterized in numerous nonclinical cancer models.

[3] = Events associated with administration of Compound 1; assay type: in vivo; conditions: reversible and monitorable events
Source text: Risks Associated with Compound 1.

[4] = test system: KRAS-mutant NSCLC (NCI-H358); assay: Human tumor xenograft model, KRAS-mutant NSCLC; assay type: in vivo; conditions: oral administration, single agent
Source text: (§2) Compound 1 has also been tested for in vivo anti-tumor activity in multiple xenograft models.

EMT6 mammary carcinoma = assay: Anti-tumor efficacy, EMT6 mammary carcinoma in BALB/c mice; assay type: in vivo
Experimental: Agents. Compound 1 was formulated in 50 mM Sodium Citrate buffer, pH3.0 at a concentration of […]. Anti-PD-L1 mAbs (Mu IgG2a anti-PD-L1, hereafter referred to as anti-PD-L1) and anti-gp120 isotype control (Mu IgG1 anti-gp120; hereafter referred to as Isotype Control) were formulated as a solution in buffer of 20 mM Histidine Acetate, 240 mM Sucrose, 0.02% Tween 20™, pH 5.5. An oral-dosed vehicle control was 50 mM Sodium Citrate buffer, pH3.0.
Cell Lines. The EMT6 mammary carcinoma cell line was cultured in vitro, harvested in log-phase growth, and resuspended in Hank's Balanced Salt Solution (HBSS) containing Matrigel™ (BD Biosciences; San Jose, CA) at a 1:1 ratio by volume for in vivo inoculation. Animals were each inoculated with 0.1×10^6 cells in the mammary gland (5, left) in a volume of […].
Mice tumor models. 10.6 weeks old Balb/c mice bearing tumors in the range of 141-196 mm^3 were evenly distributed into 4 study groups of 10 mice each. The mean tumor volume across all groups was 165 mm^3 at the start of dosing. The mean starting weight was 19.94 g. All concentrations were calculated based on a mean body weight of 20 g and adjusted for 10% body weight loss or gain. Mice in the various groups received the treatment regimens described in Table 1. Mice were dosed for a total of 28 days or until euthanized at first sign of morbidity or if body weight loss was >20% of their weight at the start of administration.
The study extended beyond 28 days and following the cessation of treatment to check for the durability of response and ended at day 102 wherein remaining mice were all euthanized.
Tumor and Body Weight Measurements. Tumor volumes were measured in two perpendicular dimensions (length and width) using Ultra Cal-IV calipers (model 54-10-111; Fred V. Fowler Co.; Newton, MA) and tumor volume was calculated according to the following formula: […]
Tumors that regressed by >50% relative to their starting volume during the study were categorized as partial responders (PRs) while tumors with a final tumor volume corresponding to full regression were categorized as complete responders (CRs). Animal body weights were measured using an Adventura Pro AV812 scale (Ohaus Corporation; Pine Brook, NJ) and percent change in body weight for each group was calculated and plotted (see FIG. 4). Percent weight change was calculated using the following formula: […]
Growth analysis and group comparisons. […] Analyses and comparisons of tumor growth were performed using a package of customized functions in R (Version 3.6.2); R Foundation for Statistical Computing; Vienna, Austria, which integrates software from open source packages (e.g., lme4, mgcv, gamm4, multcomp, settings, and plyr) and several packages from tidyverse (e.g., magrittr, dplyr, tidyr, and ggplot2) (Forrest et al.; Cancer Res 2020; 80(22):5089-97). All raw tumor volume measurements from 0 (minimum) to 8 mm^3 (maximum value) were judged to reflect complete tumor absence and were converted to 8 mm^3 prior to natural log transformation. A generalized additive mixed model (GAMM) was then applied to describe the changes in transformed tumor volumes over time using regression splines with automatically generated spline bases. This approach addresses both repeated measurements from the same study subjects and moderate dropouts before the end of the study. […]

[5] = Anti-proliferative effect in cancer cell lines, 2D and anchorage-independent 3D formats; assay type: cell-based; conditions: numerous cell lines, 2D or 3D assays; read-out: IC50, proliferation
Source text: The anti-proliferative effect of Compound 1 has been assessed in multiple cancer cell lines using 2D and anchorage-independent 3D formats.

[6] = test system: EGFR-amplified esophageal squamous cell carcinoma (KYSE-520); assay: Human tumor xenograft model, EGFR-amplified esophageal squamous cell carcinoma; assay type: in vivo; conditions: oral administration, single agent
Source text: as §2

[7] = test system: SHP2 (ERKT/2 phosphorylation at Thr202/Tyr204) in EGFR-amplified KYSE-520 cells; assay: SHP2 inhibition in cells by level of ERK phosphorylation; assay type: cell-based; conditions: Homo sapiens
Experimental: as §1

[8] = Nonclinical safety studies; assay type: in vivo
Source text: Risks associated with MAPK-Pathway Class Inhibitors. Administration of MAPK-pathway inhibitors has been associated with cardiomyopathy, retinopathy, Cardiomyopathy, CPK increase, thromboembolic events, Phototoxicity, and Reproductive Toxicity.

recombinant human SHP2 = target: T1, recombinant human SHP2 (Homo sapiens, UniProt Q06124); assay: Inhibition of recombinant human SHP2; assay type: biochemical; conditions: allosteric inhibitor
T1 sequence (Q06124 1-593): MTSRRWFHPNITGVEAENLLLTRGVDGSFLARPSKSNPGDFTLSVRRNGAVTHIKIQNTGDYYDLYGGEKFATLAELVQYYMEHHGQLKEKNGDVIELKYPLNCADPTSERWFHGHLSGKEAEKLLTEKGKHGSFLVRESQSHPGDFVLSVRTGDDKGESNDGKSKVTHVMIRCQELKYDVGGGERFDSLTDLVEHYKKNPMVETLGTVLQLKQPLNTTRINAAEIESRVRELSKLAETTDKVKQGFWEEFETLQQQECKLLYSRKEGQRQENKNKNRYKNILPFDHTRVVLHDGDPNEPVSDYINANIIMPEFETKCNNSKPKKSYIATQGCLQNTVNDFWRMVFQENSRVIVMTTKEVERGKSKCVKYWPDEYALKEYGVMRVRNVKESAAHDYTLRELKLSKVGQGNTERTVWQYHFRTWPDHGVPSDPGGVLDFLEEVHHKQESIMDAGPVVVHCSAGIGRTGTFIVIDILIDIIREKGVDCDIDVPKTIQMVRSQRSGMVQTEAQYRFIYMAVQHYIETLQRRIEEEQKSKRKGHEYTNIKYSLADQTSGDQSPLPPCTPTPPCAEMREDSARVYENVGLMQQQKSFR
Experimental: as §1

Compound: Atezolizumab: Fc-engineered, humanized, non-glycosylated IgG1 kappa immunoglobulin that binds PD-L1 (SEQ ID NO: 1 and 2)
Binding to Fc receptors (Fc receptors): minimal binding to Fc receptors
Tolerability [1]: generally well tolerated

Selectivity against panel [2]: selectively inhibits SHP2
IC50 [5]: < 1 nM
IC50 [7]: 1.3 nM
IC50 (recombinant human SHP2): 0.7 nM
Compound: N[C@@H]1c2ccccc2OC12CCN(c1cnc3c(N4CCCc5ncccc54)n[nH]c3n1)CC2 [Compound 1, (R)-1′-(3-(3,4-dihydro-1,5-naphthyridin-1(2H)-yl)-1H-pyrazolo[3,4-b]pyrazin-6-yl)-3H-spiro[benzofuran-2,4′-piperidin]-3-amine]
IFNg expression on tumor-derived CD8+ T cells (EMT6 mammary tumors; PMA/ionomycin restimulation, vs vehicle, p=0.0002 (Compound 1), p=0.0001 (combination)): increase
TNFa expression on tumor-derived CD8+ T cells (EMT6 mammary tumors; PMA/ionomycin restimulation, vs vehicle, p=0.0016 (Compound 1), p=0.0035 (combination)): increase
MFI of PD-L1 expression on tumor cells (CD45 negative) (EMT6 mammary tumors; vs vehicle group, 7 days, p=0.0127 (Compound 1), p=0.0018 (combination)): significant increase
MFI of MHC-I expression on tumor cells (CD45 negative) (EMT6 mammary tumors; vs vehicle group, 7 days, p=0.0354 (Compound 1), p=0.0044 (combination)): significant increase
Polyfunctionality of tumor-infiltrating CD8+ T cells (co-expression of IFNg and TNFa) (EMT6 mammary tumors; vs vehicle group, p=0.0008 (Compound 1), p=0.0011 (combination)): increase
Frequency of M1 population of macrophages (EMT6 mammary tumors; vs vehicle group, p=0.0033 (Compound 1), p=0.0162 (combination)): increase
M2 population of macrophages (EMT6 mammary tumors; vs vehicle group, p=0.0036 (Compound 1), p=0.0007 (combination)): decrease
Frequency of CD8 T cell population in tumor microenvironment (EMT6 mammary tumors; vs vehicle group, p=0.0058 (Compound 1), p=0.008 (combination)): increase
Frequency of MDSCs in tumor (EMT6 mammary tumors; vs vehicle group, p=0.0058 (Compound 1), p=0.0083 (combination)): reduction; also recorded: reduced
Frequency of CD4 T cell population in tumor microenvironment (EMT6 mammary tumors; vs vehicle group, p=0.0067 (Compound 1), p=0.002 (combination)): increase
Frequency of TAMs in tumor (EMT6 mammary tumors; vs vehicle group, p=0.0072 (Compound 1), p=0.0098 (combination)): reduction; also recorded: reduced
Frequency of NK cells in tumor microenvironment (EMT6 mammary tumors; vs vehicle group, p=0.013 (Compound 1), p=0.024 (combination)): increase
Events associated with administration [3]: Peripheral Edema, Myelosuppression (e.g., Thrombocytopenia, Anemia), Gastrointestinal Toxicities (e.g., Diarrhea, Nausea, and Vomiting), Elevation of Hepatic Transaminase, and Rash
Anti-tumor efficacy, NCI-H358 xenograft [4]: significant anti-tumor efficacy
Legacy % TGI (EMT6 mammary carcinoma; AUC-based, relative to vehicle controls, Compound 1 60 mg/kg PO QD, anti-PD-L1 10 mg/kg IV then 5 mg/kg IP twice weekly): 47%
Anti-tumor efficacy (in words) (EMT6 mammary carcinoma; EMT6 syngeneic tumor model, Compound 1 60 mg/kg QD): no efficacy
EOS CR (complete responders at end of study) (EMT6 mammary carcinoma; end of study day 102, after cessation of 28-day dosing, 10 mice per group): 0 (0.0%)
Growth Contrast, LN (GR) (EMT6 mammary carcinoma; relative to vehicle controls, Compound 1 60 mg/kg PO QD, anti-PD-L1 10 mg/kg IV first dose then 5 mg/kg IP twice weekly): −0.033 LN
PR (partial responders) (EMT6 mammary carcinoma; tumors regressed by >50% relative to starting volume, 10 mice per group): 0 (0.0%)
Anti-tumor efficacy, KYSE-520 xenograft [6]: significant anti-tumor efficacy
Nonclinical toxicity findings [8]: did not show evidence of cardiac, pulmonary, renal, thromboembolic, or ophthalmic toxicities
